The text below walks through data of US9000184B2, “Cyclohexane-1,2′-naphthalene-1′,2″-imidazol compounds and their use as BACE inhibitors” (AstraZeneca AB, priority 2012, dated 2015).

The pIC50 is −log10 of the IC50, conventionally taken in molar units.

The target of experiment [1] is T1, human β-Secretase (Homo sapiens (Human), UniProt P56817). The experiment can be described thus: TR-FRET assay. The experiment is classed as biochemical. The settings on record: sBACE-Fc 2.7 μg/ml, substrate 100 nM, pH 4.5, 15 minutes at RT. The procedure: The β-secretase enzyme used in the TR-FRET is prepared as follows:
(§1) The cDNA for the soluble part of the human β-Secretase (AA 1-AA 460) was cloned using the ASP2-Fc10-1-IRES-GFP-neoK mammalian expression vector. The gene was fused to the Fc domain of IgG1 (affinity tag) and stably cloned into HEK 293 cells.
(§2) The enzyme (truncated form) was diluted to 6 μg/mL (stock 1.3 mg/mL) and the TruPoint BACE1 Substrate to 200 nM (stock 120 μM) in reaction buffer (NaAcetate, chaps, triton x-100, EDTA pH4.5). Enzyme and compound in dimethylsulphoxide (final DMSO concentration 5%) was mixed and pre-incubated for 10 minutes at RT. Substrate was then added and the reaction was incubated for 15 minutes at RT. The reaction was stopped with the addition of 0.35 vol Stop solution (NaAcetate, pH 9). The fluorescence of the product was measured on a Victor II plate reader with excitation wavelengths of 340-485 nm and emission wavelengths of 590-615 nm. […] The dimethylsulphoxide control, instead of test compound, defined the 100% activity level and 0% activity was defined by wells lacking enzyme (replaced with reaction buffer) or by a saturating dose of a known inhibitor, 2-amino-6-[3-(3-methoxyphenyl)phenyl]-3,6-dimethyl-5H-pyrimidin-4-one.
In general terms: Time-resolved FRET reads energy transfer from a long-lived donor to a nearby acceptor.

Experiment [2] relates to sAPPβ release, SH-SY5Y cells. As to the kind of experiment: sAPPβ release assay. The format is cell-based. The settings on record: 17 h incubation, MSD detection. The procedure: SH-SY5Y cells were cultured in DMEM/F-12 with Glutamax, 10% FCS and 1% non-essential amino acids and cryopreserved and stored at −140° C. at a concentration of 7.5-9.5×10^6 cells per vial. Thaw cells and seed at a conc. of around 10000 cells/well in DMEM/F-12 with Glutamax, 10% FCS and 1% non-essential amino acids to a 384-well tissue culture treated plate, […] cell susp/well. The cell plates were then incubated for 7-24 h at 37° C., 5% CO2. The cell medium was removed, followed by addition of 30 μL compound diluted in DMEM/F-12 with Glutamax, 10% FCS, 1% non-essential amino acids and 1% PeSt to a final conc. of 1% DMSO. The compounds were incubated with the cells for 17 h (overnight) at 37° C., 5% CO2. Meso Scale Discovery (MSD) plates were used for the detection of sAPPβ release. MSD sAPPβ plates were blocked in 1% BSA in Tris wash buffer (40 μL/well) for 1 h on shake at r.t. and washed 1 time in Tris wash buffer (40 μL/well). 20 μL of medium was transferred to the pre-blocked and washed MSD sAPPβ microplates, and the cell plates were further used in an ATP assay to measure cytotoxicity. The MSD plates were incubated with shaking at r.t. for 2 h and the media discarded. 10 μL detection antibody was added (1 nM) per well followed by incubation with shaking at r.t. for 2 h and then discarded. 40 μL Read Buffer was added per well and the plates were read in a SECTOR Imager.

Experiment [3] has as its target T1, human β-Secretase. As to the kind of experiment: Diluted TR-FRET assay. The format is biochemical. The settings on record: footnote a: diluted FRET assay, 50 times less enzyme, 6.5 h reaction time at r.t.; read-out: IC50 in TR-FRET assay (IC50 from the diluted FRET assay). The procedure: as §1, §2
Compounds with a high affinity were further tested in a diluted TR-FRET assay, conditions as described above for the TR-FRET assay, but with 50 times less enzyme and a 6.5 h long reaction time at r.t. in the dark.

pIC50: −log10 of the molar value.

T1 sequence (P56817 22-460): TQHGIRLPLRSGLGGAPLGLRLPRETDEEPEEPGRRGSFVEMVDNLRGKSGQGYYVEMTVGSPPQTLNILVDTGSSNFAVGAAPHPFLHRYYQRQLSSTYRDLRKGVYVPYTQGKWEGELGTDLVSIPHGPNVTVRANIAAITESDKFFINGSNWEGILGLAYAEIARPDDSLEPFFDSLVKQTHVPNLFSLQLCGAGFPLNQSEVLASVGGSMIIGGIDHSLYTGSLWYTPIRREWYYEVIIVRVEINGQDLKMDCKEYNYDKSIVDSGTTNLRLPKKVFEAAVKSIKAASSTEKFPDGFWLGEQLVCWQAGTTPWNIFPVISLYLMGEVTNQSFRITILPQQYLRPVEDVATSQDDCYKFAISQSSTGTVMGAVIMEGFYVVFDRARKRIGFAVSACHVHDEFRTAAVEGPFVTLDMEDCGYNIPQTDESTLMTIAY

In the case of `CO[C@H]1CC[C@@]2(CCc3ccc(Br)cc3C23N=C(C)C(N)=N3)CC1` (single isomer, unassigned; isomer 1) [5, isomer 1], the pIC50 against human β-Secretase [1] was 6.39; in experiment [2], 7.11.

`COc1cc(C#N)cc(-c2ccc3c(c2)C2(N=C(C)C(N)=N2)[C@]2(CC3)CC[C@@H](OC)CC2)c1` (single isomer, unassigned; isomer 1) [6, isomer 1]: the negative-log IC50 (pIC50) at human β-Secretase [3] is 8.30; in experiment [2] it was 9.00. With `CO[C@H]1CC[C@@]2(CCc3ccc(-c4cncc(Cl)c4)cc3C23N=C(C)C(N)=N3)CC1` (single isomer, unassigned; isomer 1) [7, isomer 1], the pIC50 at human β-Secretase [3] was 7.85; in experiment [2], 8.60.

For the compound `CC#Cc1cncc(-c2ccc3c(c2)C2(N=C(C)C(N)=N2)[C@]2(CC3)CC[C@H](OC)CC2)c1` (single isomer, unassigned; isomer 1) [8, isomer 1], the pIC50 was 6.67 against human β-Secretase [1] and 7.09 in experiment [2]. With `COC1CCC2(CCc3ccc(-c4cc(Cl)cc(C#N)c4)cc3C23N=C(C)C(N)=N3)CC1` (single isomer, unassigned; isomer 1) [10, isomer 1], the pIC50 at human β-Secretase [3] was 8.24; in experiment [2] it was 8.51. Take `CO[C@H]1CC[C@]2(CCc3ccc(-c4cc(Cl)cc(C#N)c4)cc3C23N=C(C)C(N)=N3)CC1` (single isomer, unassigned; isomer 1) [11, isomer 1]: the pIC50 at human β-Secretase [3] was 8.44; in experiment [2] it was 8.35. For `CO[C@H]1CC[C@]2(CCc3ccc(Br)cc3C23N=C(C)C(N)=N3)CC1` (single isomer, unassigned; isomer 2) [5, isomer 2], on human β-Secretase [1], the pIC50 is 5.05. With `COc1cc(C#N)cc(-c2ccc3c(c2)C2(N=C(C)C(N)=N2)[C@]2(CC3)CC[C@H](OC)CC2)c1` (single isomer, unassigned; isomer 2) [6, isomer 2], the pIC50 was 6.23 on human β-Secretase [1] and 7.10 in experiment [2]. Take `CO[C@H]1CC[C@]2(CCc3ccc(-c4cncc(Cl)c4)cc3C23N=C(C)C(N)=N3)CC1` (single isomer, unassigned; isomer 2) [7, isomer 2]: the pIC50 was 6.48 at human β-Secretase [1] and 7.72 in experiment [2]. As for `CC#Cc1cncc(-c2ccc3c(c2)C2(N=C(C)C(N)=N2)[C@]2(CC3)CC[C@@H](OC)CC2)c1` (single isomer, unassigned; isomer 2) [8, isomer 2], the pIC50 on human β-Secretase [1] is 7.72; in experiment [2] it was 8.62. Turning to `CO[C@H]1CC[C@@]2(CCc3ccc(-c4cc(Cl)cc(C#N)c4)cc3C23N=C(C)C(N)=N3)CC1` (single isomer, unassigned; isomer 2) [10, isomer 2], the pIC50 was 6.41 on human β-Secretase [1] and 7.04 in experiment [2]. The compound `CO[C@H]1CC[C@@]2(CCc3ccc(-c4cc(Cl)cc(C#N)c4)cc3[C@@]23N=C(C)C(N)=N3)CC1` (single isomer, unassigned; isomer 2) [11, isomer 2] had a pIC50 on human β-Secretase [1] of under 5.30. As to `CC1=NC2(N=C1N)c1cc(-c3cc(F)cc(C#N)c3)ccc1CCC21CC1` (centres unmarked) [Example 2, 3-(4″-Amino-5″-methyl-3′,4′-dihydrodispiro[cyclopropane-1,2′-naphthalene-1′,2″-imidazol]-7′-yl)-5-fluorobenzonitrile], the pIC50 is 7.10 against human β-Secretase [1] and 7.64 in experiment [2] (Homo sapiens). The matching figures for `CC1=NC2(N=C1N)c1cc(-c3cc(F)cc(F)c3)ccc1CCC21CC1` (centres unmarked) [Example 3, 7′-(3,5-Difluorophenyl)-5″-methyl-3′,4′-dihydrodispiro[cyclopropane-1,2′-naphthalene-1′,2″-imidazol]-4″-amine]: 6.89 and 6.93. In experiment [2] (Homo sapiens), `CC1=NC2(N=C1N)c1cc(-c3cncc(Cl)c3)ccc1CCC21CC1` (centres unmarked) [Example 4, 7′-(5-Chloropyridin-3-yl)-5″-methyl-3′,4′-dihydrodispiro[cyclopropane-1,2′-naphthalene-1′,2″-imidazol]-4″-amine] showed a pIC50 of 7.96. On to `CC1=NC2(N=C1N)c1cc(-c3cc(Cl)cc(C#N)c3)ccc1CCC21CC1` (centres unmarked) [Example 9, 3-(4″-Amino-5″-methyl-3′,4′-dihydrodispiro[cyclopropane-1,2′-naphthalene-1′,2″-imidazol]-7′-yl)-5-chlorobenzonitrile], for which the pIC50 is 7.82 at human β-Secretase [3] and 7.80 in experiment [2] (Homo sapiens).
